Measured values: US10856562B2, “Flavor composition and edible compositions containing same” (MARS, INCORPORATED, priority 2013, dated 2020)
Square brackets hold non-standard residues; d marks the D form. Ends that are not written are not given here. pGlu = O=C1CC[C@@H](C(=O)O)N1

How the values were obtained:
panelists = experiment: Consensus attribute scores of flavor enhancers in Uncle Ben's Garden Vegetable Ready rice; assay type: in vivo, human; parameters: key to Cooked White Rice / Vegetable Oil / Vegetable Complex / Cooked Green Vegetable / Cooked Corn / Sweet (BASIC TASTES) / Salt (BASIC TASTES) / Mouthdrying (Texture) / Residual Mouthcoating (Texture) / Total Aromatics / Bitter (BASIC TASTES): 15-point scale, 0 = none, 15 = very strong; conditions: for Bitter (BASIC TASTES) / Black Pepper / Cooked Corn / Cooked Green Vegetable / Cooked White Rice / Dehydrated onion/garlic / HVP/Brothy / Mineral/Flint / Mouthdrying (Texture) / Residual Mouthcoating (Texture) / Salt (BASIC TASTES) / Salt Burn (Chemical Feeling Factors) / Sweet (BASIC TASTES) / Total Aromatics / Umami (Chemical Feeling Factors) / Vegetable Complex / Vegetable Oil: rice
Experimental: Descriptive attributes (e.g., taste, flavor and chemical feeling factors) of three use levels of pGlu-Cys (FE-35), pGlu-Cys-Gly (FE-36), pGlu-Cys-Cys (FE-37), pGlu-Cys-Val (FE-38) and pGlu-Val-Cys (UE-30) flavor composition peptides were determined. The three use levels were as follows: 1.0 ppb, 10.0 ppb and 100.0 ppb.
Data was collected for the attributes of the product in-mouth for the use levels according to the following protocol: • The samples were analyzed for flavor by six to nine members of a panel, trained and experienced in flavor evaluation using the Spectrum™ method. Samples were evaluated across multiple panel sessions. • The strength of each attribute was rated on a 15-point scale, where 0=none and 15=very strong. • This scale incorporates the ability to use tenths of a point and therefore has the potential of 150 scale differentiations. • The scale may be expanded beyond 15 points to include extreme ratings if necessary.
Preparation of Rice Samples • Each flavor enhancer was tested in Uncle Ben's Garden Vegetable Ready rice matrix at 3 different concentrations: 1 ppb, 10 ppb and 100 ppb. A total of 15 points with flavor enhancers were prepared for sensory evaluation. Additionally, 15 control samples were prepared. Each point had 2 samples (test and control) and was made from one pouch of rice. • Directions to prepare the solutions: • The 15 ready- to eat pouches were microwaved according to the procedure found on the back of the pouch: (1) squeeze pouch to separate rice, (2) tear two inches to vent, (3) heat on High for 90 seconds and (4) remove from microwave using COOL TOUCH area on untorn side. • From each pouch 124.75 g (test sample) and 99.8 g (control) were weighed out. The test sample had the flavor enhancer and/or salt. The control sample only had salt added. • The flavor enhancer and/or salt (non-iodized salt) were weighed in a soufflé cup. The weighed amount of flavor enhancer and/or salt was added to the sub-sampled rice. The rice was stirred and mixed to evenly distribute the salt added. • Some rice was placed back into the soufflé cup, sealed, and the cup was shook to get the flavor enhancer and/or salt that may have been stuck on the walls of the soufflé cup. After shaking the soufflé cup, the rice was added back to the original sub-sampled rice and stirred/mixed again. • Each sample (test and control) was microwaved for another 30 seconds (or until warm) to ensure that the salts/compounds were going completely into the solutions. • All samples (test and control) were tasted at the same temperature. • Each test sample had 0.2% NaCl added and flavor enhancers at the specified concentrations.
A summary of the concentrations of NaCl and flavor composition peptides in the rice samples is described in table 23. The first value of each cell represents a single sample amount of an ingredient in milligrams, and the second number in parenthesis is a doubling of the ingredient (in grams) for use in a doubled size sample.
The panelists evaluated each sample for the attributes described by table 25.

panel of trained tasters = experiment: Saltiness of 25% sodium-reduced food products with peptides, panel of trained tasters; assay type: in vivo, human; conditions: for Saltiness compared to control / Saltiness/flavor compared to control: 10 ppb each, n=4; for Saltiness/flavor compared to control: control 350 mg
Experimental: Food product compositions were prepared by admixing flavor composition peptide(s) of the present application with food compositions, wherein the level of sodium (NaCl) in the food product compositions was reduced. The level of sodium was reduced by 25%, 50% or 75% compared to food products compositions that were not admixed with flavor composition peptides. The food product compositions comprising the flavor composition peptides were tasted by a panel of trained tasters and the level of saltiness was compared to the control food products.
The peptides pGlu-Val-Leu (identified as “SE-13”), pGlu-Val-Cys (identified as “UE-30”), pGlu-Val-Val (identified as “SE-17”) and pGlu-Cys-Cys (identified as “FE-37”) were tested in cottage cheese, tortilla chips, ketchup, cream of mushroom soup, alfredo sauce, sausage, mixed nuts, peanuts, soy sauce and chicken broth. The level of sodium in the test food products comprising the peptides was reduced by 25% compared to the control food products.

[1] = Chicken Broth, control 860 mg, test 645 mg Na

## [pGlu]-Cys-Val [FE-38]
panelists; 1 & 100 ppb
  Cooked green vegetable in rice compared to the Control: low level of cooked green vegetable
panelists; all samples (1, 10, 100 ppb)
  Bitter in rice: bitter
  Mineral/flint note in rice, not seen in the Control: low mineral/flint note
  Mouthdrying in rice, not seen in the Control: have mouthdrying
  Salt burn feeling factor in rice compared to the Control: higher
  Umami feeling factor in rice compared to the Control: higher
panelists; 1.0 ppb (5 ppm)
  Bitter (BASIC TASTES): 0.8
  Black Pepper: 1.0
  Cooked Corn: 0.8
  Cooked Green Vegetable: 0.8
  Cooked White Rice: 3.0
  Dehydrated onion/garlic: 1.0
  HVP/Brothy: 1.0
  Mineral/Flint: 1.0
  Mouthdrying (Texture): 1.8
  Residual Mouthcoating (Texture): 1.0
  Salt (BASIC TASTES): 13.8
  Salt Burn (Chemical Feeling Factors): 1.0
  Sweet (BASIC TASTES): 3.5
  Total Aromatics: 6.3
  Umami (Chemical Feeling Factors): 2.0
  Vegetable Complex: 1.5
  Vegetable Oil: 0.8
panelists; 10.0 ppb (50 ppm)
  Bitter (BASIC TASTES): 1.2
  Black Pepper: 1.0
  Cooked Corn: 1.0
  Cooked Green Vegetable: 0.0
  Cooked White Rice: 3.0
  Dehydrated onion/garlic: 0.8
  HVP/Brothy: 1.0
  Mineral/Flint: 1.5
  Mouthdrying (Texture): 2.0
  Residual Mouthcoating (Texture): 1.0
  Salt (BASIC TASTES): 13.0
  Salt Burn (Chemical Feeling Factors): 1.0
  Sweet (BASIC TASTES): 3.3
  Total Aromatics: 6.0
  Umami (Chemical Feeling Factors): 2.0
  Vegetable Complex: 1.0
  Vegetable Oil: 1.0
panelists; 100 ppb (50 ppm)
  Bitter (BASIC TASTES): 0.8
  Black Pepper: 1.0
  Cooked Corn: 0.8
  Cooked Green Vegetable: 0.8
  Cooked White Rice: 3.0
  Dehydrated onion/garlic: 1.0
  HVP/Brothy: 1.5
  Mineral/Flint: 1.0
  Mouthdrying (Texture): 2.5
  Residual Mouthcoating (Texture): 1.0
  Salt (BASIC TASTES): 13.5
  Salt Burn (Chemical Feeling Factors): 1.3
  Sweet (BASIC TASTES): 3.5
  Total Aromatics: 6.5
  Umami (Chemical Feeling Factors): 3.0
  Vegetable Complex: 1.5
  Vegetable Oil: 0.8

## [pGlu]-Val-Cys [UE-30]
panelists; 10 and 100 ppb
  Mouthdrying in rice: low mouthdrying
panelists; all samples (1, 10, 100 ppb)
  Cooked green vegetable in rice compared to the Control: low level of cooked green vegetable
  Salt burn feeling factor in rice compared to the Control: higher
  Salt in rice compared to the Control: saltier than the Control
  Umami feeling factor in rice compared to the Control: higher
panelists; 1.0 ppb (5 ppm)
  Black Pepper: 1.3
  Cooked Corn: 0.8
  Cooked Green Vegetable: 0.8
  Cooked White Rice: 3.0
  Dehydrated onion/garlic: 1.0
  HVP/Brothy: 1.5
  Mineral/Flint: 0.0
  Mouthdrying (Texture): 0.0
  Residual Mouthcoating (Texture): 1.0
  Salt (BASIC TASTES): 15.0
  Salt Burn (Chemical Feeling Factors): 1.0
  Sweet (BASIC TASTES): 3.0
  Total Aromatics: 6.8
  Umami (Chemical Feeling Factors): 1.5
  Vegetable Complex: 1.5
  Vegetable Oil: 0.8
panelists; 10.0 ppb (50 ppm)
  Black Pepper: 1.5
  Cooked Corn: 1.0
  Cooked Green Vegetable: 1.0
  Cooked White Rice: 3.0
  Dehydrated onion/garlic: 1.0
  HVP/Brothy: 1.5
  Mineral/Flint: 0.5
  Mouthdrying (Texture): 1.8
  Residual Mouthcoating (Texture): 1.0
  Salt (BASIC TASTES): 15.0
  Salt Burn (Chemical Feeling Factors): 0.8
  Sweet (BASIC TASTES): 3.5
  Total Aromatics: 6.8
  Umami (Chemical Feeling Factors): 2.0
  Vegetable Complex: 1.8
  Vegetable Oil: 0.8
panelists; 100 ppb (50 ppm)
  Black Pepper: 1.5
  Cooked Corn: 1.0
  Cooked Green Vegetable: 1.0
  Cooked White Rice: 3.0
  Dehydrated onion/garlic: 1.0
  HVP/Brothy: 1.5
  Mineral/Flint: 0.5
  Mouthdrying (Texture): 1.5
  Residual Mouthcoating (Texture): 1.5
  Salt (BASIC TASTES): 16.0
  Salt Burn (Chemical Feeling Factors): 1.3
  Sweet (BASIC TASTES): 3.5
  Total Aromatics: 6.8
  Umami (Chemical Feeling Factors): 3.0
  Vegetable Complex: 1.8
  Vegetable Oil: 0.5

## [pGlu]-Val-Leu [SE-13]
Panel of trained tasters; [1]
  Saltiness compared to control: Test samples saltier than
Panel of trained tasters; Cottage Cheese, test 262 mg Na
  Saltiness/flavor compared to control: Test samples notably less
Panel of trained tasters; Ketchup, test 120 mg Na
  Saltiness compared to SE-17: SE-13 more salty than
Panel of trained tasters; Tortilla Chips, control 103 mg, test 77 mg Na
  Saltiness compared to control: Test samples saltier than

## [pGlu]-Val-Val [SE-17]
Panel of trained tasters; [1]
  Saltiness compared to control: Test samples saltier than
Panel of trained tasters; Cottage Cheese, test 262 mg Na
  Saltiness/flavor compared to control: Test samples notably less
Panel of trained tasters; Cottage Cheese, test 262 mg Na, compared to SE-13 and SE-13 + UE-30
  Preference among test samples: combination preferred
